ChEMBL document CHEMBL1201862, “PubChem BioAssay data set” (2004)
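Following 48 hours of exposure in 96-well plates, responses at five concentrations were used to interpolate endpoints linearly. The concentration for 50% growth inhibition is given as GI50.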 Active and inactive are the calls of the source. Cut-off read from the data, not from the text of the source: active = GI50 up to about 1.1 µM and inactive = higher.

How the values were obtained:
Assay in all cases: inhibition of tumour cell growth, NCI panel, 48 h
OVCAR-8 = system: OVCAR-8
LOX IMVI = system: LOX IMVI
HL-60 = system: HL-60
SN12C = system: SN12C
IGROV-1 = system: IGROV-1
HOP-62 = system: HOP-62
UO-31 = system: UO-31
OVCAR-4 = system: OVCAR-4
RXF 393 = system: RXF 393
NCI-H23 = system: NCI-H23
M14 = system: M14
NCI-H226 = system: NCI-H226
HCT-15 = system: HCT-15
HCC 2998 = system: HCC 2998
EKVX = system: EKVX
UACC-62 = system: UACC-62
SK-MEL-28 = system: SK-MEL-28
HOP-92 = system: HOP-92

Row | SMILES | GI50 (OVCAR-8) | GI50 (LOX IMVI) | GI50 (HL-60) | GI50 (SN12C) | GI50 (IGROV-1) | GI50 (HOP-62) | GI50 (UO-31) | GI50 (OVCAR-4) | GI50 (RXF 393) | GI50 (NCI-H23) | GI50 (M14) | GI50 (NCI-H226) | GI50 (HCT-15) | GI50 (HCC 2998) | GI50 (EKVX) | GI50 (UACC-62) | GI50 (SK-MEL-28) | GI50 (HOP-92)
1 | COC1(C)C(=O)N2C1N(C(=O)OCc1ccccc1)CC2(C)C (stereo not drawn) | > 100 µM (inactive) | > 100 µM (inactive) | > 100 µM (inactive) | > 100 µM (inactive) | > 100 µM (inactive) | > 100 µM (inactive) | > 100 µM (inactive) | > 100 µM (inactive) | > 100 µM (inactive) | > 100 µM (inactive) | > 100 µM (inactive) | > 100 µM (inactive) | > 100 µM | > 100 µM (inactive) | > 100 µM (inactive) | > 100 µM (inactive) | > 100 µM (inactive) | 
2 | Cc1[nH]c2ccccc2c1C(=O)/C=C/c1ccccc1O | > 100 µM (inactive) | > 100 µM (inactive) | > 100 µM (inactive) | > 100 µM (inactive) | > 100 µM (inactive) | > 100 µM (inactive) | > 100 µM (inactive) | > 100 µM (inactive) | > 100 µM (inactive) | > 100 µM (inactive) | > 100 µM (inactive) | > 10 µM (inactive) |  | > 100 µM (inactive) | > 100 µM (inactive) | > 100 µM (inactive) | > 100 µM (inactive) | 
3 | COc1ccc2c(c1)c(=O)c1c(NCCN(C)C)ccc3nnn2c31 | 1.04 µM (active) | 1.33 µM (inactive) | 1.82 µM (inactive) | 2.49 µM (inactive) | 3.33 µM (inactive) | 2.82 µM (inactive) | 2.17 µM (inactive) | 1.97 µM (inactive) | 0.0272 µM (active) | 2.68 µM (inactive) | 3.99 µM (inactive) | 2.46 µM (inactive) | 3.82 µM | 2.76 µM (inactive) | 2.05 µM (inactive) | 4.71 µM (inactive) | 5.78 µM (inactive) | 2.19 µM (inactive)
4 | Cc1ccc(S(=O)(=O)C(C#N)c2nc3ccccc3nc2-n2cccn2)cc1 (stereo not drawn) | > 100 µM (inactive) |  | > 100 µM (inactive) | > 100 µM (inactive) | > 100 µM (inactive) |  | > 100 µM (inactive) | > 100 µM (inactive) |  | > 100 µM (inactive) | > 100 µM (inactive) | > 100 µM (inactive) | > 100 µM | > 100 µM (inactive) | > 100 µM (inactive) |  | > 100 µM (inactive) | > 100 µM (inactive)
5 | COc1ccc(C(c2ccc(C(C)C)cc(OC)c2=O)c2ccc(C(C)C)cc(OC)c2=O)cc1 | 16.6 µM (inactive) | 15.3 µM (inactive) | 12.2 µM (inactive) | 16.1 µM (inactive) |  | 21 µM (inactive) | 14.3 µM (inactive) | 12.2 µM (inactive) | 4.15 µM (inactive) | 16.3 µM (inactive) | 14.9 µM (inactive) | 18.1 µM (inactive) | 12.7 µM |  | 13.6 µM (inactive) | 14.8 µM (inactive) |  | 13.6 µM (inactive)
6 | COC1OC(C)C2OC(C)(C)OC2C1OC(C)=O (stereo not drawn) | > 100 µM (inactive) | > 100 µM (inactive) | > 100 µM (inactive) | > 100 µM (inactive) | > 100 µM (inactive) | > 100 µM (inactive) |  | > 100 µM (inactive) | 39.7 µM (inactive) | > 100 µM (inactive) | > 100 µM (inactive) | > 100 µM (inactive) | > 100 µM | > 100 µM (inactive) |  | > 100 µM (inactive) | > 100 µM (inactive) | > 100 µM (inactive)
7 | C=C1C(=O)OC2C=C(CCC(C)=O)C(C)C(OC(C)=O)CC12 (stereo not drawn) | 16.5 µM (inactive) | 1.61 µM (inactive) | 3.33 µM (inactive) | 15.7 µM (inactive) | 21.5 µM (inactive) | > 10 µM (inactive) | 13.6 µM (inactive) | 13.1 µM (inactive) | 2.41 µM (inactive) |  | 5.42 µM (inactive) | 13.6 µM (inactive) | 6.11 µM | 9.93 µM (inactive) | 12.9 µM (inactive) | 12.6 µM (inactive) | 8.26 µM (inactive) | 3.99 µM (inactive)
8 | COC(=O)CCSC(=O)Nc1ccccc1Cl | > 100 µM (inactive) | > 100 µM (inactive) | 63.1 µM (inactive) | > 100 µM (inactive) |  | > 100 µM (inactive) | > 100 µM (inactive) | > 100 µM (inactive) |  | > 100 µM (inactive) | > 100 µM (inactive) | > 100 µM (inactive) | > 100 µM | > 100 µM (inactive) | > 100 µM (inactive) | > 100 µM (inactive) | > 100 µM (inactive) | 
